Values joined by “and” are separate entries in the source; they are usually repeats but may differ in a detail not shown here. Identical values can stand only once. Like-named read-outs stand apart in the source and are kept apart here.
Legend:
[1] = system: hESC-derived hepatic aggregates; assay: Intracellular flow cytometry of AFP+ and ALB+ cells in hepatic aggregates; format: cell-based, human; details: day 44 aggregates
Method: The proportion of ALB positive cells, on the other hand, was higher in the cAMP-treated population (89.5+/−5.6% vs 82.3+/−3.0%, P<0.05 (mean+/−SD, n=3).
Flow cytometric analyses were performed as described previously^45. For cell surface markers, staining was carried out in PBS with 10% FCS. For intracellular proteins, staining was performed on cells fixed with 4% paraformaldehyde (Electron Microscopy Science, Hatfield, PA, USA) in PBS. Cells were permeabilized with 90% ice-cold methanol for 20 minutes for Sox17 and FoxA2 staining as previously described^45. Albumin and alpha-fetoprotein staining was performed in PBS with 10% FCS and 0.5% saponin (Sigma). Stained cells were analyzed using an LSRII flow cytometer (BD).

[2] = system: hESC-derived hepatic aggregates
Description: To further mature the cells, the role of cAMP signaling was investigated. Studies using hepatic cell lines have shown that activation of this pathway can induce hepatic gene expression, in part through the induction of the peroxisome proliferator-activated receptor gamma coactivator-1-alpha (PGC1-a), a coactivator that functions together with HNF4a to regulate the expression of many genes involved in hepatocyte function 25 28. […] The proportion of ALB positive cells was not reduced in spite of the fact that the levels of mRNA declined (FIG. 5b). Without being bound by theory, these differences could reflect differences in RNA vs. protein expression. Other tissues, such as the pancreas, also express PGC-1a.
HPSCs were maintained on irradiated mouse embryonic feeder cells in hESC media consisting of DEME/F12 (50:50; Gibco) supplemented with 20% Knock-out serum replacement (KSR) as described previously^44. Prior to the generation of embryoid bodies (EBs), hESCs were passaged onto Matrigel™-coated plates for 1 day to deplete the population of feeder cells. […] At day 1, the EBs were harvested and re-cultured in induction medium A that consisted of StemPRO-34® supplemented with glutamine (2 mM), ascorbic acid ([…]; Sigma), MTG ([…]; Sigma), basic fibroblast growth factor (bFGF; 2.5 ng/ml), activin A (100 ng/ml), Wnt3a (25 ng/ml) and BMP4 (0.25 ng/ml) for 3 days. On day 4, the EBs were harvested and re-cultured in StemPRO-34® supplemented with bFGF (10 ng/ml), activin A (100 ng/ml), Wnt3a (25 ng/ml) and BMP4 (0.25 ng/ml) (medium B). EBs were harvested at day 6, dissociated to single cells and the cells cultured for 2 days on Matrigel™-coated 12 well plates at a concentration of 4×10^5 cells in media B without Wnt3A and with activin A at a concentration of 50 ng/ml. At day 8, medium B was replaced with hepatic specification media that consisted of Iscove's Modified Dulbecco's Medium (IMDM) supplement with 1% vol/vol B27 supplement (Invitrogen: A11576SA), ascorbic acid, MTG, FGF10 (50 ng/ml) (from day 8 to day 10), bFGF (20 ng/ml) (from day 10 to day 14), and BMP4 (50 ng/ml). Media was changed every 2 days from day 8 to day 14. To promote maturation of HES2-derived hepatic cells, they were cultured in maturation media A for 12 days. Maturation media A consisted of IMDM with 1% vol/vol B27 supplement, ascorbic acid, Glutamine, MTG, Hepatocyte growth factor (HGF) (20 ng/ml), Dexamethasone Dex) (40 ng/ml) and Oncostatin M (20 ng/ml). Aggregates were generated from the population at day 26 of culture. To generate aggregates the cells were dissociated with collagenase and TrypleLE and then cultured in six well ultra-low cluster dishes at a concentration of 6×10^5 cells per well in maturation medium A supplemented with Rho-kinase inhibitor and 0.1% BSA. Aggregates were maintained under these conditions until day 32, with media changes every 3 days. […] Media was changed every 3 days. To generate hepatocyte like cells from H9, H1 and IPS cells, the following changes were made to the hepatic specification media. […] All cytokines were human and purchased from R&D Systems, unless stated otherwise. EB and monolayer cultures were maintained in a 5% CO2, 5% O2, 90% N2 environment. Aggregation cultures were maintained in a 5% CO2 ambient air environment.
Total RNA was prepared with RNAqueous® Micro Kit (Ambion) and treated with RNase-free DNase (Ambion). 500 ng to 1 μg RNA was reverse transcribed into cDNA using random hexamers and Oligo(dT) with Superscript® III Reverse Transcriptase (Invitrogen). qPCR was performed on a MasterCycler® ep realplex (Eppendorf) using A QuentiFast SYBR Green PCR Kit (Quiagen) as described previously^45. Expression levels were normalized to the housekeeping gene TATA box binding protein (TBP). […] Total human adult and fetal liver RNA was purchased from Clontech. Two primary hepatocyte RNA samples were provided by Dr Stephen C. […] Two primary hepatocyte samples were cultured for two day and were harvested.

CYP2B6 = target: T1, CYP2B6 (Homo sapiens, UniProt P20813); assay: CYP2B6 activity, hydroxylation of bupropion by HPLC; format: in vitro ADME; details: 8-Br-cAMP-treated cells versus primary hepatocytes
T1 sequence (P20813 1-491): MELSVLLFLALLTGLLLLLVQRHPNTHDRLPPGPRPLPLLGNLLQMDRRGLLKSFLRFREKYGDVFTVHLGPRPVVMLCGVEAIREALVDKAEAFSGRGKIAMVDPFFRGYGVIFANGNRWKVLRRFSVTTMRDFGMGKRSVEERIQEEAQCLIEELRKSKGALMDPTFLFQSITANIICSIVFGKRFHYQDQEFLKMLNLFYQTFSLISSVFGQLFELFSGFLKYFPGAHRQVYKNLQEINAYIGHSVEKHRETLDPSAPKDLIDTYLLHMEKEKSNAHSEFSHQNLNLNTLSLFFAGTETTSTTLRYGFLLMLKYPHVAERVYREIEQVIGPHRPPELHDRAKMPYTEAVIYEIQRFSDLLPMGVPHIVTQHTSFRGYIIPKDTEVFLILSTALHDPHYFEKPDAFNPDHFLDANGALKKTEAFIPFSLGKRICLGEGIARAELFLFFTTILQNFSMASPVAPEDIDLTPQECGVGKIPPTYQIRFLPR
Method: Formation of the metabolite O-hydroxy-bupropion from bupropion was measured by HPLC. Activity is presented per 50,000 cells, (n=3).

[3] = system: UDP-glucuronosyltransferase (UGT); assay: Total UGT activity, 4-MU glucuronidation; format: in vitro ADME, human; details: cAMP-treated aggregates versus primary cultured hepatocytes
[4] = hepatic aggregates, day 32 to 44
[5] = hepatic aggregates, day 32 to 44, average

expression of CYP1A2 and CYP3A4 [2]: little increase | increase in expression of CYP1A2 [2]: 18 fold | increase in expression of CYP2B6 [2]: 4.7 fold | increase in expression of CYP3A4 [2]: 2.5 fold
Structure (SMILES): Nc1ncnc2c1nc(Br)n2[C@@H]1O[C@@H]2COP(=O)(O)O[C@H]2[C@H]1O [8-Br-cAMP, 8-bromoadenosine-3′5″-cyclic monophosphate]
proportion of AFP+ cells [1]: 26% and 34.5+/−12.4% | proportion of ALB+ cells [1]: 89.5+/−5.6% | induction of UGT1A1 expression ([2]; HES2-derived aggregates, day 44, relative to non-treated): 11 fold | expression of PGC1-a ([2]; hESC-derived insulin positive pancreatic cells): not induced | expression level of AFP [2, 4]: downregulated | expression level of ALB [2, 4]: downregulated | expression of PGC1-a [2, 4]: 15 fold | expression of G6P [2, 5]: 25 fold | expression of TAT [2, 5]: 33 fold | CYP2B6 activity, hydroxylation of bupropion (CYP2B6): comparable to those found in primary hepatocytes | UGT activity [3]: higher than that of primary cultured hepatocytes

Reference: US12129490B2, “Methods for generating hepatocytes and cholangiocytes from pluripotent stem cells” (UNIVERSITY HEALTH NETWORK, priority 2018, dated 2024)
